Reference: article PMC12434670 (Journal of Medicinal Chemistry, 2025)
Where two headings read alike, the source gives them in different places.

Tested on: Virg09 virus clones with HA mutations
Type: cell-based, influenza A virus
[1] = read-out: Antiviral EC50 by MTS assay, mutant A81/82_1V
[2] = read-out: Antiviral EC50 by MTS assay, mutant D90_2G
[3] = read-out: Antiviral EC50 by MTS assay, mutant F118_1L
[4] = read-out: Antiviral EC50 by MTS assay, mutant S54_2P
[5] = read-out: Antiviral EC50 by MTS assay, mutant T301_1I
[6] = read-out: EC50 against all virus clones selected under VF-57a or RL-007

SMILES | Activity against all viruses tested (in words) | EC50 [1] | EC50 [2] | EC50 [3] | EC50 [4] | EC50 [5] | EC50 [6]
O=C1c2c(O)c(=O)ccn2N([C@@H]2c3ccccc3SCc3c2ccc(F)c3F)[C@@H]2COCCN12 [BXA, baloxavir acid] | equally active | 0.003 ± 0.0007 µM | 0.0017 ± 0.0002 µM | 0.0025 ± 0.0005 µM | 0.0017 ± 0.0008 µM | 0.0019 ± 0.0001 µM | 
Cc1cc(CNC(=O)c2cc(Cl)cc(C(F)(F)F)c2)c(C)s1 [Compound 23, 3-Chloro-N-[(2,5-dimethylthiophen-3-yl)methyl]-5-(trifluoromethyl)benzamide] |  | > 40 µM | > 40 µM | > 40 µM | > 40 µM | > 40 µM | > 40 µM
CC(C)c1ccccc1NCCN1CCCCC1 [RL-007, reference compound] |  | > 40 µM | > 40 µM | > 40 µM | > 40 µM | > 40 µM | > 40 µM
